Results from the supplement of paper PMC4862054.

test system: HDQ-P1; test: drug sensitivity score (DSS), CellTox Green (DSS (AUC-based score)); higher = stronger drug effect (viability inhibition or cytotoxicity); extreme values may be limits of the assay; details: incubation time: 72 h
Outline: (§1)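 After 72 h of incubation in 384-well plates with compound at 5 concentrations (10-fold steps, 10,000-fold range set per compound), breast cancer cell lines seeded in 20 µl suspension were read first for CellTox Green fluorescence at 485/520 nm. CellTiter-Glo luminescence was measured next, after 10 min at room temperature. Normalisation on each plate used 0.1 % DMSO and a positive kill control, and the drug sensitivity score was computed from the area under the fitted dose-response curve.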

Compound | drug sensitivity score
CCNC(=O)c1noc(-c2cc(C(C)C)c(O)cc2O)c1-c1ccc(CN2CCOCC2)cc1 [NVP-AUY922] | 6
Cc1cn(-c2cc(NC(=O)c3ccc(C)c(Nc4nccc(-c5cccnc5)n4)c3)cc(C(F)(F)F)c2)cn1 [Nilotinib] | 0
CC[C@H](CO)Nc1nc(NCc2ccccc2)c2ncn(C(C)C)c2n1 [Seliciclib] | 0
O=[N+]([O-])c1ccc2c(c1)S(=O)(=O)C=C2 [Stattic] | 2.09
O=C(CCCCCCC(=O)Nc1ccccc1)NO [Vorinostat] | 0

test system: MDA-MB-453; test: as above; details: incubation time: 72 h
Outline: as §1

Compound | drug sensitivity score
CNC(=O)c1ccccc1Sc1ccc2c(/C=C/c3ccccn3)n[nH]c2c1 [Axitinib] | 0
COc1cc(Nc2c(C#N)cnc3cc(OCCCN4CCN(C)CC4)c(OC)cc23)c(Cl)cc1Cl [Bosutinib] | 1.6
CCN(CC)CCCC(C)Nc1ccnc2cc(Cl)ccc12 (stereo not drawn) [Chloroquine] | 9.85
CC1(COc2ccc3c(c2)ncn3-c2ccc3cccc(N4CCC(N)CC4)c3n2)COC1 [Crenolanib] | 0
CC(C)(C)c1nc(-c2cccc(NS(=O)(=O)c3c(F)cccc3F)c2F)c(-c2ccnc(N)n2)s1 [Dabrafenib] | 0
Cc1nc(C(=O)NCC(=O)O)c(O)c2ccc(Oc3ccccc3)cc12 [FG-4592] | 0
CC(C)(C)NC(=O)[C@H]1CC[C@H]2[C@@H]3CC[C@H]4NC(=O)C=C[C@]4(C)[C@H]3CC[C@]12C [Finasteride] | 0
Nc1ccn([C@@H]2O[C@H](CO)[C@@H](O)C2(F)F)c(=O)n1 [Gemcitabine] | 0
O=C(O)CNC(=O)c1c(O)c2ccccc2n(Cc2ccccc2)c1=O [IOX-2] | 1.5
CC(=O)[C@]1(O)Cc2c(O)c3c(c(O)c2[C@@H](O[C@H]2C[C@H](N)[C@H](O)[C@H](C)O2)C1)C(=O)c1ccccc1C3=O [Idarubicin] | 0
C/C(=C\c1csc(C)n1)[C@@H]1C[C@@H]2O[C@]2(C)CCC[C@H](C)[C@H](O)[C@@H](C)C(=O)C(C)(C)[C@@H](O)CC(=O)N1 [Ixabepilone] | 0
C=CCn1c(=O)c2cnc(Nc3ccc(N4CCN(C)CC4)cc3)nc2n1-c1cccc(C(C)(C)O)n1 [MK1775] | 0
CN(Cc1cnc2nc(N)nc(N)c2n1)c1ccc(C(=O)N[C@@H](CCC(=O)O)C(=O)O)cc1 [Methotrexate] | 0.671
CO[C@@]12[C@H](COC(N)=O)C3=C(C(=O)C(C)=C(N)C3=O)N1C[C@@H]1N[C@@H]12 [Mitomycin C] | 0
CCNC(=O)c1noc(-c2cc(C(C)C)c(O)cc2O)c1-c1ccc(CN2CCOCC2)cc1 [NVP-AUY922] | 0.086
Cc1cn(-c2cc(NC(=O)c3ccc(C)c(Nc4nccc(-c5cccnc5)n4)c3)cc(C(F)(F)F)c2)cn1 [Nilotinib] | 0
CC[C@H](CO)Nc1nc(NCc2ccccc2)c2ncn(C(C)C)c2n1 [Seliciclib] | 0
O=[N+]([O-])c1ccc2c(c1)S(=O)(=O)C=C2 [Stattic] | 2.97
O=C(CCCCCCC(=O)Nc1ccccc1)NO [Vorinostat] | 0

test system: MDA-MB-231; test: as above; details: incubation time: 72 h
Outline: as §1

Compound | drug sensitivity score
CNC(=O)c1ccccc1Sc1ccc2c(/C=C/c3ccccn3)n[nH]c2c1 [Axitinib] | 0
COc1cc(Nc2c(C#N)cnc3cc(OCCCN4CCN(C)CC4)c(OC)cc23)c(Cl)cc1Cl [Bosutinib] | 7.99
CCN(CC)CCCC(C)Nc1ccnc2cc(Cl)ccc12 (stereo not drawn) [Chloroquine] | 11.6
CC1(COc2ccc3c(c2)ncn3-c2ccc3cccc(N4CCC(N)CC4)c3n2)COC1 [Crenolanib] | 6.39
CC(C)(C)c1nc(-c2cccc(NS(=O)(=O)c3c(F)cccc3F)c2F)c(-c2ccnc(N)n2)s1 [Dabrafenib] | 0
Cc1nc(C(=O)NCC(=O)O)c(O)c2ccc(Oc3ccccc3)cc12 [FG-4592] | 0
CC(C)(C)NC(=O)[C@H]1CC[C@H]2[C@@H]3CC[C@H]4NC(=O)C=C[C@]4(C)[C@H]3CC[C@]12C [Finasteride] | 0
Nc1ccn([C@@H]2O[C@H](CO)[C@@H](O)C2(F)F)c(=O)n1 [Gemcitabine] | 0
O=C(O)CNC(=O)c1c(O)c2ccccc2n(Cc2ccccc2)c1=O [IOX-2] | 0
CC(=O)[C@]1(O)Cc2c(O)c3c(c(O)c2[C@@H](O[C@H]2C[C@H](N)[C@H](O)[C@H](C)O2)C1)C(=O)c1ccccc1C3=O [Idarubicin] | 0
C/C(=C\c1csc(C)n1)[C@@H]1C[C@@H]2O[C@]2(C)CCC[C@H](C)[C@H](O)[C@@H](C)C(=O)C(C)(C)[C@@H](O)CC(=O)N1 [Ixabepilone] | 0.915
C=CCn1c(=O)c2cnc(Nc3ccc(N4CCN(C)CC4)cc3)nc2n1-c1cccc(C(C)(C)O)n1 [MK1775] | 19.8
CN(Cc1cnc2nc(N)nc(N)c2n1)c1ccc(C(=O)N[C@@H](CCC(=O)O)C(=O)O)cc1 [Methotrexate] | 0
CO[C@@]12[C@H](COC(N)=O)C3=C(C(=O)C(C)=C(N)C3=O)N1C[C@@H]1N[C@@H]12 [Mitomycin C] | 0
CCNC(=O)c1noc(-c2cc(C(C)C)c(O)cc2O)c1-c1ccc(CN2CCOCC2)cc1 [NVP-AUY922] | 12.6
Cc1cn(-c2cc(NC(=O)c3ccc(C)c(Nc4nccc(-c5cccnc5)n4)c3)cc(C(F)(F)F)c2)cn1 [Nilotinib] | 3.55
CC[C@H](CO)Nc1nc(NCc2ccccc2)c2ncn(C(C)C)c2n1 [Seliciclib] | 0
O=[N+]([O-])c1ccc2c(c1)S(=O)(=O)C=C2 [Stattic] | 11.6
O=C(CCCCCCC(=O)Nc1ccccc1)NO [Vorinostat] | 8.86
